Data as given in US20160311791A1, “NOVEL TRICYCLIC CALCIUM SENSING RECEPTOR ANTOGONISTS FOR THE TREATMENT OF OSTEOPOSOSIS” (MERCK SHARP & DOHME CORP., priority 2013, published 2016).

Each compound was assayed against T1, human CaSR (Homo sapiens, UniProt P41180) (assay: CaSR FLIPR assay (calcilytic activity)). Details: HEK293 cells stably expressing human recombinant CaSR; 1 mM CaCl2 agonist; Tables 1-24; read-out: FLIPR ASSAY IC50.
T1 sequence (P41180 20-1078): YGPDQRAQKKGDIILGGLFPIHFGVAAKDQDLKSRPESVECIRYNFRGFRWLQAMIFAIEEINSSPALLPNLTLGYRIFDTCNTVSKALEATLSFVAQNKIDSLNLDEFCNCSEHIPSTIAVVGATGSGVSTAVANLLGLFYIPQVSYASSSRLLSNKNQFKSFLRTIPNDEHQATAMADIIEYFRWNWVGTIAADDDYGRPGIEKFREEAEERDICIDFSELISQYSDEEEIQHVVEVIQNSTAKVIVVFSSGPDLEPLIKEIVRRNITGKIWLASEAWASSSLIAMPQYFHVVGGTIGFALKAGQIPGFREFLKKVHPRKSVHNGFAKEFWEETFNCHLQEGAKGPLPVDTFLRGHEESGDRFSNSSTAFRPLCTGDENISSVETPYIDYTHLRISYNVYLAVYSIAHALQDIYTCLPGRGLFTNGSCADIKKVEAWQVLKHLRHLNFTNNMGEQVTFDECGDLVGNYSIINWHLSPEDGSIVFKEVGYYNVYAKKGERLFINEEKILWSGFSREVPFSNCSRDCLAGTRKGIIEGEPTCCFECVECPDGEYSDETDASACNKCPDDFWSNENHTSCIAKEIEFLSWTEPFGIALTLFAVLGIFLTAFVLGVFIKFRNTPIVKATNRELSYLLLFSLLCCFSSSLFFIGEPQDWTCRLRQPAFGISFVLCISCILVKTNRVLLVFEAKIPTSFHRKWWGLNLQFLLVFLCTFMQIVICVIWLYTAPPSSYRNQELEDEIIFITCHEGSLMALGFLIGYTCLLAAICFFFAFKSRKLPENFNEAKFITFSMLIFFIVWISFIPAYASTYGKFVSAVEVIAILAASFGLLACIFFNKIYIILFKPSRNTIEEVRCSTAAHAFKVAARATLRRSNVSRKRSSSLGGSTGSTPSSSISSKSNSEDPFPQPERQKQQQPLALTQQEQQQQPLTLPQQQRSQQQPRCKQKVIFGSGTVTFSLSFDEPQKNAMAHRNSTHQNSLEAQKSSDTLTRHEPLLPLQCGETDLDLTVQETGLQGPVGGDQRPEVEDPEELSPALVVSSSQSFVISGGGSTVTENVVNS
Type: cell-based
Design: expressed in transfected cells
Protocol: Procedures for CaSR FLIPR Assay
Calcilytic activity of the compound is measured in HEK293 cells stably expressing human recombinant CaSR (HEK-CaSR) using a FLIPR^TETRA device (Molecular Devices, Sunnyvale, Calif.) according to the manufacturer's directions. […] On the day of the assay, one vial of FLIPR Calcium 4 Assay Kit reagent Component A was equilibrated to room temperature. The content of the Component A vial was diluted by adding 10 ml dilution buffer (2×loading dye). The sample was mixed by vortexing (1-2 minutes) until the contents of the vial dissolved. The Component A vial mixture was diluted with 10 ml dilution buffer. Media was aspirated from the cells and 80 μl of loading buffer was added to each well. Plates were incubated for 1 hour at 37° C. and then placed at room temperature for 10 minutes. A two-stage method of generating 10-point serial dilutions was used. Compound was serially diluted in 100% DMSO (10 point, 3-fold dilution of each compound from 2 mM in 100% DMSO). 3 μl of serially diluted compound was transferred into a second assay microplate that contained 97 μl of TETRA dilution buffer (20 mM HEPES pH7.4, 1×HBSS without Ca and Mg, 0.4 mM CaCl2, 0.4 mM MgSO4, 0.5 mM MgCl2) to create the intermediate dilution plate. After reading the base line, the compounds in 0.5% DMSO in dilution buffer were added to their respective wells as 20 μl aliquots at 6×the final drug concentration. The fluorescence signals were then read. Subsequently, 20 μl of 3.6 mM of CaCl2 agonist (1 mM final concentration) was added to each well. For background, 20 μl of TETRA dilution buffer was added instead. The protocol consisted of a pre-addition read of 10 frames (10×1 frame/sec), a post 1st addition read of 100 frames (60×1 frame/sec, 40×1 frame/3 sec), pause 3 min, a post 2nd addition read of 100 frames (60×1 frame/sec, 40×1 frame/3 sec) on a FLIPR^TETRA Plate Reader.
Work on `C[C@@H](OC[C@H](O)CNC(C)(C)Cc1ccc(Cl)c(F)c1)c1cccc2c1O[C@@H]1[C@@H](C(=O)O)[C@H]21` [Example 1-2] yielded an IC50 of 0.148 µM. Work on `C[C@@H](OC[C@H](O)CNC(C)(C)CC1Cc2ccccc2C1)c1cccc2c1O[C@@H]1[C@@H](C(=O)O)[C@H]21` [Example 1-3] yielded an IC50 of 0.04 µM. `Cc1ccc(CC(C)(C)NC[C@@H](O)CO[C@H](C)c2cccc3c2O[C@@H]2[C@@H](C(=O)O)[C@H]32)cc1F` [Example 1-4] gave an IC50 of 0.078 µM. In the case of `Cc1ccc(CC(C)(C)NC[C@@H](O)CO[C@H](C)c2cccc3c2O[C@@H]2[C@@H](C(=O)O)[C@H]32)cc1C` [Example 1-5], the IC50 is reported as 0.23 µM. `C[C@@H](OC[C@H](O)CNC(C)(C)Cc1ccc2occc2c1)c1cccc2c1O[C@@H]1[C@@H](C(=O)O)[C@H]21` [Example 1-6] gave an IC50 of 0.049 µM. Work on `C[C@@H](OC[C@H](O)CNC(C)(C)Cc1ccc2c(c1)CCC2)c1cccc2c1O[C@@H]1[C@@H](C(=O)O)[C@H]21` [Example 1-7] yielded an IC50 of 0.11 µM. With `C[C@@H](OC[C@H](O)CNC(C)(C)Cc1ccc2c(c1)OCO2)c1cccc2c1O[C@@H]1[C@@H](C(=O)O)[C@H]21` [Example 1-8] the IC50 was 0.32 µM. Work on `C[C@@H](OC[C@H](O)CNC(C)(C)Cc1ccc2sccc2c1)c1cccc2c1O[C@@H]1[C@@H](C(=O)O)[C@H]21` [Example 1-9] yielded an IC50 of 0.027 µM. In the case of `C[C@@H](OC[C@H](O)CNC(C)(C)Cc1ccc2c(c1)OCCO2)c1cccc2c1O[C@@H]1[C@@H](C(=O)O)[C@H]21` [Example 1-10], the IC50 is reported as 0.46 µM. Work on `Cc1ccc(CC(C)(C)NC[C@@H](O)CO[C@H](C)c2cccc3c2O[C@@H]2[C@@H](C(=O)O)[C@H]32)c(F)c1` [Example 1-11] yielded an IC50 of 0.14 µM. With `C[C@@H](OC[C@H](O)CNC(C)(C)Cc1ccc(Cl)c(Cl)c1)c1cccc2c1O[C@@H]1[C@@H](C(=O)O)[C@H]21` [Example 1-13] the IC50 was 0.039 µM. `C[C@@H](OC[C@H](O)CNC(C)(C)CCCc1ccccc1)c1cccc2c1O[C@@H]1[C@@H](C(=O)O)[C@H]21` [Example 1-14] was tested, and the IC50 was 0.038 µM. Work on `C[C@@H](OC[C@H](O)CNC(C)(C)Cc1ccc(F)c(F)c1)c1cccc2c1O[C@@H]1[C@@H](C(=O)O)[C@H]21` [Example 1-15] yielded an IC50 of 1.27 µM. `C[C@@H](OC[C@H](O)CNC(C)(C)Cc1ccc([S+](C)[O-])cc1)c1cccc2c1O[C@@H]1[C@@H](C(=O)O)[C@H]21` (stereo partly drawn) [Example 1-16] was tested, and the IC50 was over 10 µM. For `CSc1ccc(CC(C)(C)NC[C@@H](O)CO[C@H](C)c2cccc3c2O[C@@H]2[C@@H](C(=O)O)[C@H]32)cc1F` [Example 1-17], the IC50 was 0.165 µM. For `C[C@@H](OC[C@H](O)CNC(C)(C)Cc1ccc([S+](C)[O-])c(F)c1)c1cccc2c1O[C@@H]1[C@@H](C(=O)O)[C@H]21` (stereo partly drawn) [Example 1-18], the IC50 was over 10 µM. Work on `COc1ccc(CC(C)(C)NC[C@@H](O)CO[C@H](C)c2cccc3c2O[C@@H]2[C@@H](C(=O)O)[C@H]32)c(Cl)c1` [Example 1-19] yielded an IC50 of 0.17 µM. `C[C@@H](OC[C@H](O)CNC(C)(C)CCSc1ccccc1)c1cccc2c1O[C@@H]1[C@@H](C(=O)O)[C@H]21` [Example 1-20] showed an IC50 of 0.33 µM. Work on `CSc1ccc(CC(C)(C)NC[C@@H](O)CO[C@H](C)c2cccc3c2O[C@@H]2[C@@H](C(=O)O)[C@H]32)cc1Cl` [Example 1-21] yielded an IC50 of 0.086 µM. In the case of `C[C@@H](OC[C@H](O)CNC(C)(C)Cc1ccc2ccccc2c1)c1cccc2c1O[C@H]1[C@H](C(=O)O)[C@@H]21` [Example 2-1], the IC50 is reported as 0.132 µM. `C[C@@H](OC[C@H](O)CNC(C)(C)Cc1ccc(Cl)c(F)c1)c1cccc2c1O[C@H]1[C@H](C(=O)O)[C@@H]21` [Example 2-2] was tested, and the IC50 was 0.148 µM. With `C[C@@H](OC[C@H](O)CNC(C)(C)CC1Cc2ccccc2C1)c1cccc2c1O[C@H]1[C@H](C(=O)O)[C@@H]21` [Example 2-3] the IC50 was 0.307 µM. Compound `Cc1ccc(CC(C)(C)NC[C@@H](O)CO[C@H](C)c2cccc3c2O[C@H]2[C@H](C(=O)O)[C@@H]32)cc1C` [Example 2-4] has an IC50 of 0.381 µM. With `C[C@@H](OC[C@H](O)CNC(C)(C)COCc1ccccc1)c1cccc2c1O[C@H]1[C@H](C(=O)O)[C@@H]21` [Example 2-5] the IC50 was 4.22 µM. `C[C@@H](OC[C@H](O)CNC(C)(C)Cc1ccc(Cl)cc1F)c1cccc2c1O[C@H]1[C@H](C(=O)O)[C@@H]21` [Example 2-6] was tested, and the IC50 was 0.73 µM. Work on `C[C@@H](OC[C@H](O)CNC(C)(C)C(=O)N1CCc2ccccc2C1)c1cccc2c1O[C@H]1[C@H](C(=O)O)[C@@H]21` [Example 2-7] yielded an IC50 of at least 10 µM. Work on `C[C@@H](OC[C@H](O)CNC(C)(C)CN1CCc2ccccc2C1)c1cccc2c1O[C@H]1[C@H](C(=O)O)[C@@H]21` [Example 2-8] yielded an IC50 of 7.39 µM. `CSc1ccc(CC(C)(C)NC[C@@H](O)CO[C@H](C)c2cccc3c2O[C@H]2[C@H](C(=O)O)[C@@H]32)cc1F` [Example 2-9] showed an IC50 of 0.83 µM. In the case of `C[C@@H](OC[C@H](O)CNC(C)(C)Cc1ccc2ccccc2c1)c1cccc2c1O[C@@H]1[C@@H](C(=O)NS(=O)(=O)C3(C)CC3)[C@H]21` [Example 4-1], the IC50 is reported as 0.06 µM. With `C[C@@H](OC[C@H](O)CNC(C)(C)Cc1ccc(Cl)c(F)c1)c1cccc2c1[C@@H]1[C@H](O2)[C@H]1C(=O)O` [Example 5-2] the IC50 was 0.032 µM. For `C[C@@H](OC[C@H](O)CNC(C)(C)CC1Cc2ccccc2C1)c1cccc2c1[C@@H]1[C@H](O2)[C@H]1C(=O)O` [Example 5-3], the IC50 was 0.0355 µM. For `Cc1ccc(CC(C)(C)NC[C@@H](O)CO[C@H](C)c2cccc3c2[C@@H]2[C@H](O3)[C@H]2C(=O)O)cc1C` [Example 5-5], the IC50 was 0.026 µM. With `C[C@@H](OC[C@H](O)CNC(C)(C)Cc1ccc2occc2c1)c1cccc2c1[C@@H]1[C@H](O2)[C@H]1C(=O)O` [Example 5-6] the IC50 was 0.137 µM. `C[C@@H](OC[C@H](O)CNC(C)(C)Cc1ccc2c(c1)CCC2)c1cccc2c1[C@@H]1[C@H](O2)[C@H]1C(=O)O` [Example 5-7] was tested, and the IC50 was 0.025 µM. Compound `C[C@@H](OC[C@H](O)CNC(C)(C)Cc1ccc2c(c1)OCO2)c1cccc2c1[C@@H]1[C@H](O2)[C@H]1C(=O)O` [Example 5-8] has an IC50 of 0.16 µM. In the case of `C[C@@H](OC[C@H](O)CNC(C)(C)Cc1ccc2sccc2c1)c1cccc2c1[C@@H]1[C@H](O2)[C@H]1C(=O)O` [Example 5-9], the IC50 is reported as 0.023 µM. In the case of `C[C@@H](OC[C@H](O)CNC(C)(C)Cc1ccc2c(c1)OCCO2)c1cccc2c1[C@@H]1[C@H](O2)[C@H]1C(=O)O` [Example 5-10], the IC50 is reported as 0.153 µM. For `COc1ccc(CC(C)(C)NC[C@@H](O)CO[C@H](C)c2cccc3c2[C@@H]2[C@H](O3)[C@H]2C(=O)O)c(F)c1` [Example 5-11], the IC50 was 0.108 µM. In the case of `C[C@@H](OC[C@H](O)CNC(C)(C)Cc1ccc(Cl)c(Cl)c1)c1cccc2c1[C@@H]1[C@H](O2)[C@H]1C(=O)O` [Example 5-12], the IC50 is reported as 0.039 µM. In the case of `CSc1ccc(CC(C)(C)NC[C@@H](O)CO[C@H](C)c2cccc3c2[C@@H]2[C@H](O3)[C@H]2C(=O)O)cc1` [Example 5-13], the IC50 is reported as 0.072 µM. `CSc1ccc(CC(C)(C)NC[C@@H](O)CO[C@H](C)c2cccc3c2[C@@H]2[C@H](O3)[C@H]2C(=O)O)cc1F` [Example 5-14] was tested, and the IC50 was 0.027 µM. Compound `C[C@@H](OC[C@H](O)CNC(C)(C)Cc1ccc([S+](C)[O-])c(F)c1)c1cccc2c1[C@@H]1[C@H](O2)[C@H]1C(=O)O` (stereo partly drawn) [Example 5-15] has an IC50 of over 10 µM.
